Measured values taken from US20090076044A1, “VEGFR INHIBITORS CONTAINING A ZINC BINDING MOIETY” (priority 2007, published 2009).

Experiments:
[1] = system: HDAC; assay: HDAC fluorimetric assay kit (HeLa nuclear extract); assay type: biochemical
Protocol: (b) An In Vitro Assay which Determines the Ability of a Test Compound to Inhibit HDAC Enzymatic Activity.
HDAC inhibitors were screened using an HDAC fluorimetric assay kit (AK-500, Biomol, Plymouth Meeting, Pa.). Test compounds were dissolved in dimethylsulphoxide (DMSO) to give a 20 mM working stock concentration. Fluorescence was measured on a WALLAC Victor 2 plate reader and reported as relative fluorescence units (RFU). Data were plotted using GraphPad Prism (v4.0a) and IC50's calculated using a sigmoidal dose response curve fitting algorithm. Each assay was setup as follows: Defrosted all kit components and kept on ice until use. Diluted HeLa nuclear extract 1:29 in Assay Buffer (50 mM Tris/Cl, pH 8.0, 137 mM NaCl, 2.7 mM KCl, 1 mM MgCl2). Prepared dilutions of Trichostatin A (TSA, positive control) and tested compounds in assay buffer (5× of final concentration). Diluted Fluor de Lys™ Substrate in assay buffer to 100 uM (50 fold=2× final). Diluted Fluor de Lys™ developer concentrate 20-fold (e.g. 50 μl plus 950 μl Assay Buffer) in cold assay buffer. Second, diluted the 0.2 mM Trichostatin A 100-fold in the 1× Developer (e.g. 10 μl in 1 ml; final Trichostatin A concentration in the 1× Developer=2 μM; final concentration after addition to HDAC/Substrate reaction=1 μM). Added Assay buffer, diluted trichostatin A or test inhibitor to appropriate wells of the microtiter plate. Added diluted HeLa extract or other HDAC sample to all wells except for negative controls. Allowed diluted Fluor de Lys™ Substrate and the samples in the microtiter plate to equilibrate to assay temperature (e.g. 25 or 37° C. Initiated HDAC reactions by adding diluted substrate (25 μl) to each well and mixing thoroughly. Allowed HDAC reactions to proceed for 1 hour and then stopped them by addition of Fluor de Lys™ Developer (50 μl). Incubated plate at room temperature (25° C.) for 10-15 min. Read samples in a microtiter-plate reading fluorimeter capable of excitation at a wavelength in the range 350-380 nm and detection of emitted light in the range 440-460 nm.

[2] = target: T1, human c-Met (Homo sapiens, UniProt P08581); assay: c-Met radioisotope kinase assay; assay type: biochemical; conditions: 1 μM ATP
T1 construct: recombinant human catalytic domain (amino acids 956-1390); His; host or cells: insect cells
Protocol: (c) An In Vitro Assay which Determines the Ability of a Test Compound to Inhibit c-MET Enzymatic Activity.
For c-Met assay, p33 ATP tracers were incubated with purified recombinant c-Met kinase to monitor the enzyme activity. C-Met (Accession number: GenBank NP_000236.2) is characterized as follows: recombinant human catalytic domain (amino acids 956-1390) with histidine-tagged, expressed in insect cells. Purity≧90% by SDS-PAGE and Coomassie blue staining. MW=53.7 kDa. Specific Activity of 373 nmole of phosphate transferred to myelin basic protein (MBP) per minute per mg of total protein at 30° C. Activity determined at a final protein concentration of 2 μg/mL. Enzyme at 0.41 mg/ml in 20 mM Tris (pH 7.5), 100 mM NaCl, 0.5 mM EDTA, 0.05% Triton X-100, 2 mM DTT, 50% Glycerol. In this assay, reactions were carried out in the presence of 10 nM c-Met kinase and 5 uM myelin basic protein. The reaction was carried out at 30° C. for 120 minutes in a final assay condition contained 20 mM HEPES, pH 7.5, 10 mM MgCl2, 1 mM EGTA, 0.02% Brij 35, 0.02 mg/ml BSA, 0.1 mM Na3VO4, 2 mM DTT and 1 μM ATP. An equal volume of 25% TCA was added to stop the reaction and precipitate the labeled proteins. Precipitated proteins were trapped onto glass fiber B filterplates and excess unlabeled p33 ATP was washed off. The plates were allowed to air-dry prior to the addition of 30 uL/well of Packard Microscint 20. The amount of incorporated isotope was measured using a Perkin Elmer TopCount plate reader. Different concentrations of compounds were added to reaction to assess the activity of compounds to inhibit c-Met kinase. IC50 was calculated using Prism software with sigmoidal dose-response curve fitting.

T1 sequence (P08581 956-1390): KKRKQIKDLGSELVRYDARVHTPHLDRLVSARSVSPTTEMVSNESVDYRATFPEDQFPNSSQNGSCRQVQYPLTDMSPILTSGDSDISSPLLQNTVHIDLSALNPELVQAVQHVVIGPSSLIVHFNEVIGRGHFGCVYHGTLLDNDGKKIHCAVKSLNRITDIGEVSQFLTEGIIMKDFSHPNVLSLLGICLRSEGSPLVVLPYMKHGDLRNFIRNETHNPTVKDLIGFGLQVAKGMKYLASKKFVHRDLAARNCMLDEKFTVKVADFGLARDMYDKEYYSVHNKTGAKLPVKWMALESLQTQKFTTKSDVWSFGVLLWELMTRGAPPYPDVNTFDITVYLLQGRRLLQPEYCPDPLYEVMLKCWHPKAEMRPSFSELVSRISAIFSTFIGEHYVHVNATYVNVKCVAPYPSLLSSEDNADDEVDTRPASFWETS

IC50 [1]	IC50 [2]	SMILES
< 100 nM		COc1cc2ncnc(Nc3ccc4occc4c3)c2cc1OCCCCCCC(=O)NO [Compound 2, 7-(4-(benzofuran-5-ylamino)-7-methoxyquinazolin-6-yloxy)-N-hydroxyheptanamide]
100 to 1000 nM	1000 to 10000 nM	COc1cc2c(Oc3ccc4[nH]c(C)cc4c3F)ncnc2cc1OCCCCCC(=O)NO [Compound 10, 6-(4-(4-fluoro-2-methyl-1H-indol-5-yloxy)-6-methoxyquinazolin-7-yloxy)-N-hydroxyhexanamide]
100 to 1000 nM	1000 to 10000 nM	COc1cc2c(Oc3ccc4[nH]c(C)cc4c3F)ncnc2cc1OCCCCCCC(=O)NO [Compound 11, 7-(4-(4-fluoro-2-methyl-1H-indol-5-yloxy)-6-methoxyquinazolin-7-yloxy)-N-hydroxyheptanamide]
< 100 nM		COc1cc2c(Nc3ccc4[nH]c(C)cc4c3F)ncnc2cc1OCCCCCC(=O)NO [Compound 13, 6-(4-(4-fluoro-2-methyl-1H-indol-5-ylamino)-6-methoxyquinazolin-7-yloxy)-N-hydroxyhexanamide]
< 100 nM	1000 to 10000 nM	COc1cc2c(Nc3ccc4[nH]c(C)cc4c3F)ncnc2cc1OCCCCCCC(=O)NO [Compound 14, 7-(4-(4-fluoro-2-methyl-1H-indol-5-ylamino)-6-methoxy-quinazolin-7-yloxy)-N-hydroxyheptanamide]
100 to 1000 nM	100 to 1000 nM	Cc1cc2c(F)c(Oc3ncnc4cc(OCCCN5CCCC5)c(OCCCCCC(=O)NO)cc34)ccc2[nH]1 [Compound 16, 6-(4-(4-fluoro-2-methyl-1H-indol-5-yloxy)-7-(3-(pyrrolidin-1-yl)propoxy)quinazolin-6-yloxy)-N-hydroxyhexanamide]
< 100 nM	< 100 nM	Cc1cc2c(F)c(Oc3ncnc4cc(OCCCN5CCCC5)c(OCCCCCCC(=O)NO)cc34)ccc2[nH]1 [Compound 17]
100 to 1000 nM		Cc1cc2c(F)c(Nc3ncnc4cc(OCCCN5CCCC5)c(OCCCCC(=O)NO)cc34)ccc2[nH]1 [Compound 18, 5-(4-(4-fluoro-2-methyl-1H-indol-5-ylamino)-7-(3-(pyrrolidin-1-yl)propoxy)quinazolin-6-yloxy)-N-hydroxypentanamide]
100 to 1000 nM		Cc1cc2c(F)c(Nc3ncnc4cc(OCCCN5CCCC5)c(OCCCCCC(=O)NO)cc34)ccc2[nH]1 [Compound 19, 6-(4-(4-Fluoro-2-methyl-1H-indol-5-ylamino)-7-(3-(pyrrolidin-1-yl)propoxy)quinazolin-6-yloxy)-N-hydroxyhexanamide]
	1000 to 10000 nM	Cc1cc2c(F)c(Nc3ncnc4cc(OCCCN5CCCC5)c(OCCCCCCC(=O)NO)cc34)ccc2[nH]1 [Compound 20, 7-(4-(4-Fluoro-2-methyl-1H-indol-5-ylamino)-7-(3-(pyrrolidin-1-yl)propoxy)quinazolin-6-yloxy)-N-hydroxyheptanamide]
